# Patent US10894794B1, “Substituted [1,2,4]triazolo[4,3-a]pyrazines as antidiabetics” (King Abdulaziz University, priority 2019, dated 2021)
# Marks after values point to notes of the source that are not given here.
# Assays:
# DPP-IV enzyme = DPP-IV enzyme (Homo sapiens (Human), UniProt P27487); test: DPP-IV inhibition assay (Biovision kit, fluorescence); type: biochemical; details: read-out: IC50 (DPP4 inhibition)
# Protocol: Sitagliptin phosphate monohydrate and the different tested compounds were dissolved in dimethyl sulphoxide (DMSO) and diluted with tris buffer (pH 8.0, 50 mM) to achieve the required concentrations. DPP-IV inhibition assay was conducted using a kit purchased from Biovision (Milpitas, Calif., USA). Briefly, DPP-IV enzyme was diluted with tris buffer and pipetted 50 μl into glass mini-cells. Subsequently the 25 μl of tris buffer, sitagliptin phosphate monohydrate or the tested compounds was added and incubated at 37° C. for 20 min protected from light. Finally, a volume of 25 μl of DPP-IV substrate was added into each tube. The fluorescence generated from hydrolysis of the substrate was read at Ex/Em=360/460 nm using Modulus® single tube multimode reader (Promega, USA). Baseline fluorescence was recorded before incubation (R1) and 20 min after incubation (R2). Percentage inhibition was calculated according to the following equation: […] where, ΔRFU=R2−R1 and EC is the enzyme control (enzyme solution without inhibitor) which is considered 100% activity.
# The standard DPP-IV inhibitor drug sitagliptin was employed as positive control. […] Sigmoidal dose-response curves for DPP-IV % inhibition versus log concentrations were plotted using Graphpad prism software, version 5.00 (GraphPad Software, Inc. La Jolla, Calif., USA). The IC50 value corresponds to the concentration of sample needed to inhibit DPP-IV by 50%.
# [1] = test system: overnight fasted diabetic mice; test: OGTT after multiple doses (6 consecutive days); type: in vivo; details: for AUC in OGTT, % change from diabetic control / AUC in OGTT, Δ from diabetic control / Relative potency to sitagliptin (OGTT AUC) / AUC in OGTT, X (arithmetic mean): 50 mg/kg oral for six days; for AUC in OGTT, X (arithmetic mean): 2 h before glucose loading, AUC 0-120 min; for relative potency in OGTT compared with sitagliptin (in words): 6 consecutive days, 50 mg/kg
# Protocol: The tested compounds were given daily by oral gavage for 6 consecutive days. On day 6, the overnight fasted diabetic mice were pretreated with the 6th oral dose of the tested compounds. Then an oral glucose was loaded (2 g/kg/10 ml b.w.) 2 h after drug treatment. Blood glucose levels were determined using the Accu-check Go® (Roche Diagnostics, Michigan, USA). Samples were collected just before drug administration (Fasting Blood glucose), then 2 h after drug treatment and before glucose administration. Sample collection was continued at 20, 40, 60 and 120 min intervals after glucose loading.
# • b. Group 1: Animals of this group are 14 h overnight-fasted normoglycemic mice received the vehicle (1% CMC-Na) at a dosing volume of 10 ml/kg/day for six consecutive days. • c. Group 2: Overnight-fasted diabetic mice received the vehicle (1% CMC-Na) at a dosing volume of 10 ml/kg/day for six consecutive days and served as a negative control. • d. Group 3: Overnight-fasted diabetic mice received sitagliptin at a dose of 50 mg/kg/day for six consecutive days and served as positive control. • e. Groups 4-17: Animals in these groups were overnight-fasted diabetic mice and received the tested compounds 128, 129, 130, 131, at a dose of 50 mg/kg/day for six consecutive days (volume of 10 ml/kg). Effect on Blood Glucose Level after Introduction of Food for One Hour (≈Meal Tolerance Test) Rational of the Test
# DPP-IV enzyme, sequence (P27487 whole entry, species assumed): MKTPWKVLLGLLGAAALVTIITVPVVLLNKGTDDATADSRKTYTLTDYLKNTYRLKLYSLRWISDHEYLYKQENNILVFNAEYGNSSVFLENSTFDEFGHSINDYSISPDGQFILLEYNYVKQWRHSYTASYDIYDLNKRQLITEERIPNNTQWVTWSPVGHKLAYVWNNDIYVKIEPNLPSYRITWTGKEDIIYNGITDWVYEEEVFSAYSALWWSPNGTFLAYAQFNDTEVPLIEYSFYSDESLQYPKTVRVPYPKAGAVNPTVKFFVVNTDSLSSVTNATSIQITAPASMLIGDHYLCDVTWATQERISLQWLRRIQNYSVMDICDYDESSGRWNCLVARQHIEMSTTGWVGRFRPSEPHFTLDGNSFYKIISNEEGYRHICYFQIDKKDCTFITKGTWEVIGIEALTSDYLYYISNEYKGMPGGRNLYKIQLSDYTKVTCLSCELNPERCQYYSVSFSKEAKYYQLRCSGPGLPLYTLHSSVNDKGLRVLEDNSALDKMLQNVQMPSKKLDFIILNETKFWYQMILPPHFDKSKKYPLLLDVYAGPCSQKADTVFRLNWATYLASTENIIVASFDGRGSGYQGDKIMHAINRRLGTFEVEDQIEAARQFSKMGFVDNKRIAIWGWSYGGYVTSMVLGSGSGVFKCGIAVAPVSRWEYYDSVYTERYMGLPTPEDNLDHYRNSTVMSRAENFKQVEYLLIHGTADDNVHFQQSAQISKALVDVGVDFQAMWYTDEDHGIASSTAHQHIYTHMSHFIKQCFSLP
IC50 (DPP-IV enzyme),Structure (SMILES),"AUC in OGTT, % change from diabetic control [1]","AUC in OGTT, Δ from diabetic control [1]",Relative potency to sitagliptin (OGTT AUC) [1],"AUC in OGTT, X (arithmetic mean) [1]",relative potency in OGTT compared with sitagliptin (in words) [1]
0.21 nM,C[C@H](NC(=O)c1cccc(Cl)c1)C(=O)N1CCn2c(nnc2C(F)(F)F)C1 [GLP-130],−34.11%,-17983 mg·min/dL,0.90,34672* mg · dL^−1 · min,comparable or higher relative potency than sitagliptin
1.84 nM,O=C(CN1CCn2c(nnc2C(F)(F)F)C1)NC1CCCCC1 [GLP-140],−38.32%,-20180 mg·min/dL,1.01,32475* mg · dL^−1 · min,comparable or higher relative potency than sitagliptin
0.18 nM,N#Cc1cccc(NC(=O)CN2CCn3c(nnc3C(F)(F)F)C2)c1 [GLP-142],−19.4%,-10216 mg·min/dL,0.513,42439* mg · dL^−1 · min,
